The text below walks through data of patent US11439657B2, “Cancer stem cell growth inhibitor using miRNA” (CancerStem Tech Inc., priority 2017, dated 2022).

Common to all, as to format: cell-based
In data set [1] the test system is human large bowel cancer cells (DLD1 line and HT29 line). In words: Colony formation assay. To be noted: DLD1 and HT29 lines; 50 nM; culture for 10 days; versus control miRNA; FIG. 14. As to the method:
A cell suspension prepared by suspending human large bowel cancer cells (DLD1 line and HT29 line) in RPMI medium (containing 10% by volume FBS) was seeded in each well of a 6-well plate at 3×10^5 cells/well, followed by culture for 2 days. Then, the medium was changed to RPMI medium (containing no FBS), and a mixture of lipofectamin RNAiMAX Regent (final concentration in each well: 0.03 μL/ml) and hsa-miR-3065-3p (final concentration in each well: 50 nM) was added for transfection, followed by culture for 8 hours. Then, cells after transfection were recovered and suspended in RPMI medium (containing 10% by volume FBS), and were seeded in each well of a 6-well plate at 500 cells/well, followed by culture for 10 days. Thereafter, the culture supernatant was removed, and cells were fixed with methanol and then stained with crystal violet to count the formed colonies. In addition, tests were also performed under the same condition on a case where a control miRNA (SEQ ID NO: 9) was used (control miRNA, negative control) in place of hsa-miR-3065-3p.

Data set [2] relates to human large bowel cancer cells (HT29 line). The data set is described as follows: Drug sensitivity in combination with oxaliplatin (cell viability). Particulars: miRNA 50 nM, oxaliplatin 0-128 μM for 72 hours, compared to only oxaliplatin and to control plus oxaliplatin, FIG. 16. The procedure: A cell suspension prepared by suspending human large bowel cancer cells (HT29 line) in RPMI medium was seeded in each well of a 6-well plate at 3×10^5 cells/well, and a mixture of lipofectamin RNAiMAX Regent (final concentration in well: 0.03 μL/well) and hsa-miR-3065-3p (final concentration in well: 50 nM) was further added, followed by culture for 1 day. Then, cells were recovered and suspended in RPMI medium, and were seeded in each well of a 96-well plate at 3×10^3 cells/well, followed by culture for 2 days. Thereafter, oxaliplatin was added to each well at 0, 2, 4, 8, 16, 32, 64 or 128 μM, followed by additional culture for 72 hours. After culture, living cells in each well were counted by GloMax-Multi Detection System (Promega Corporation). When the number of living cells under a condition where oxaliplatin was not added was 100%, the ratio of the number of living cells under each condition (cell viability, %) was determined. In addition, tests were also performed under the same condition on a case where a control miRNA (SEQ ID NO: 9) was used (control miRNA, negative control) in place of hsa-miR-3065-3p, and on a case where no miRNA was added.

In data set [3] the test system is human large bowel cancer cells (DLD1 line). The data set is described as follows: Wound healing assay. Particulars: 20 pmol/well, wound area at 24 and 48 hours, compared to the negative control, FIG. 17. As to the method:
Wound healing assay was performed using Culture-Insert (NIPPON Genetics Co, Ltd). In each well of a 24-well plate, 70 μl of cell suspension (4.9×10^4 cells/well) prepared by suspending human large bowel cancer cells (DLD1 line) in RPMI medium (containing 10% by volume FBS) and an insert that could create a constant gap of 0.5±0.05 mm in width between cells were placed, followed by culture for 1 day, so that a single layer of cells and an area where there is no cell (wound area) corresponding to the gap were formed at the bottom of the well. Then, the insert and culture supernatant were remove, 500 μl of DMEM medium (serum free) was added to each well, and further a mixture of lipofectamin RNAiMAX Regent (final concentration in well: 2 μl/well) and hsa-miR-3065-3p (final concentration in well: 20 pmol/well) was added, followed by culture for 1 day. Thereafter, the medium was changed to RPMI medium (containing 10% by volume FBS), followed by culture for 48 hours. The culture using RPMI medium (containing 10% by volume FBS) had the medium replaced with a fresh medium at 24 hours after the start of culture. The area of wound area was determined at 0, 24 and 48 hours from the start of culture using RPMI medium (containing 10% by volume FBS). When the wound area at 0 hour from the start of culture was 100%, the percentages of wound area at 24 and 48 hours after culture were determined. […]

Regarding “hsa-miR-3065-3p: human-derived miR-3065-3p; base sequence set forth in SEQ ID NO: 2 as mature miRNA (UCAGCACCAGGAUAUUGUUGGAG; listed as RNA, chemistry not given here; listed as Homo sapiens)”, the “colony forming ability of human large bowel cancer cells” value in data set [1] is “able to inhibit the colony forming ability”. In addition, the “number of living cells (cell viability) on treatment with both hsa-miR-3065-3p and oxaliplatin” value in data set [2] is “significantly reduce the number of living cells”. Besides, the “decrease in wound area (migration)” value in data set [3] was “significantly suppressed”.
